Source: patent US20110144159A1, “ETHER BENZYLIDENE PIPERIDINE ARYL CARBOXAMIDE COMPOUNDS USEFUL AS FAAH INHIBITORS” (Pfizer Inc, priority 2008, published 2011)

Molecular target: T1, Human FAAH (Homo sapiens, UniProt O00519)
T1 construct: made in house
T1 sequence (O00519 32-579 limits assumed): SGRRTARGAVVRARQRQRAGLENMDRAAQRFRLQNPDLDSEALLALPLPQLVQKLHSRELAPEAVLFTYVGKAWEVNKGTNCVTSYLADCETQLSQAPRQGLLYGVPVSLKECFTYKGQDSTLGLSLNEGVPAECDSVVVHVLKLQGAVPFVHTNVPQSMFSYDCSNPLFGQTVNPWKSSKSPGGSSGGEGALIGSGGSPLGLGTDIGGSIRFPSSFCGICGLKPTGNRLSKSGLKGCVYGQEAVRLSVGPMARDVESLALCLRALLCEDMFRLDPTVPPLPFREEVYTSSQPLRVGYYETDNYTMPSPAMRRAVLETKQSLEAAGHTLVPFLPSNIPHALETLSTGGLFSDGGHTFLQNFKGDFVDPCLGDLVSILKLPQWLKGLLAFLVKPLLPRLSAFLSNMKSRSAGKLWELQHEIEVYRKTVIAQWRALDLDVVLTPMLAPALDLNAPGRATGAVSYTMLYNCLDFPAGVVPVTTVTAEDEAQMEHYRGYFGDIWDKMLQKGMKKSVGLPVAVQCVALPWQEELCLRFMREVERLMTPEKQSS
Experiment: FAAH assay (glutamate dehydrogenase-coupled, oleamide substrate, absorbance at 340 nm)
Format: biochemical
Settings: further compounds, read-out: hFAAH_Kinact/Ki—StL
Method in brief: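 Human FAAH (1-4 nM) with 50 μM oleamide, coupled to glutamate dehydrogenase/NADH, pH 7.4, 7.5% DMSO and EtOH, 30° C; A340 read every 30 s for 90 min. Irreversible inhibition fitted for kobs per concentration, then Ki and kinact from kobs vs. [I].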

kinact/KI | Molecule
404 M⁻¹ s⁻¹ | COc1cnc(NC(=O)N2CCC(=Cc3cccc(OCC4CCCCO4)c3)CC2)cn1 (stereo not shown) [N-(5-methoxypyrazin-2-yl)-4-[3-(tetrahydro-2H-pyran-2-ylmethoxy)benzylidene]piperidine-1-carboxamide]

Same assay, conditions: irreversible inhibition potency

hFAAH KInact/K | Molecule
276 M⁻¹ s⁻¹ | CCC(COC)Oc1cccc(C=C2CCN(C(=O)Nc3cccnn3)CC2)c1 (stereo not shown) [Example 98, 4-{3-[1-(methoxymethyl)propoxy]benzylidene}-N-pyridazin-3-ylpiperidine-1-carboxamide]
1880 M⁻¹ s⁻¹ | Cc1cc(COc2cccc(C=C3CCN(C(=O)Nc4cccnn4)CC3)c2)no1 [Example 54, 4-{3-[(5-methylisoxazol-3-yl)methoxy]benzylidene}-N-pyridazin-3-ylpiperidine-1-carboxamide]
2350 M⁻¹ s⁻¹ | CC(C)Oc1cccc(C=C2CCN(C(=O)Nc3cccnn3)CC2)c1 [Example 40, 4-(3-isopropoxybenzylidene)-N-pyridazin-3-ylpiperidine-1-carboxamide]
452 M⁻¹ s⁻¹ | O=C(Nc1cccnn1)N1CCC(=Cc2cccc(OCc3nccs3)c2)CC1 [Example 68, N-pyridazin-3-yl-4-[3-(1,3-thiazol-2-ylmethoxy)benzylidene]piperidine-1-carboxamide]
3300 M⁻¹ s⁻¹ | O=C(Nc1cccnn1)N1CCC(=Cc2cccc(OC3CCCCC3)c2)CC1 [Example 10, 4-[3-(cyclohexyloxy)benzylidene]-N-pyridazin-3-ylpiperidine-1-carboxamide]
503 M⁻¹ s⁻¹ | COCCOc1cccc(C=C2CCN(C(=O)Nc3cccnn3)CC2)c1 [Example 66, 4-[3-(2-methoxyethoxy)benzylidene]-N-pyridazin-3-ylpiperidine-1-carboxamide]
<10.0 M⁻¹ s⁻¹ | C=CC(C)Oc1cccc(C=C2CCN(C(=O)Nc3cccnn3)CC2)c1 (stereo not shown) [Example 26, 4-{3-[(1-methylprop-2-en-1-yl)oxy]benzylidene}-N-pyridazin-3-ylpiperidine-1-carboxamide]

The next lines start with the molecule.

Molecule | hFAAH KInact/K
CCC(CC)Oc1cccc(C=C2CCN(C(=O)Nc3cccnc3)CC2)c1 [Example 14, 4-[3-(1-ethylpropoxy)benzylidene]-N-pyridin-3-ylpiperidine-1-carboxamide] | 718 M⁻¹ s⁻¹
N-pyridazin-3-yl-4-[3-(pyridin-2-ylmethoxy)benzylidene]piperidine-1-carboxamide [Example 46] | 353 M⁻¹ s⁻¹
O=C(Nc1cccnc1)N1CCC(=Cc2cccc(OC3CCCCCC3)c2)CC1 [Example 18, 4-[3-(cycloheptyloxy)benzylidene]-N-pyridin-3-ylpiperidine-1-carboxamide] | 1020 M⁻¹ s⁻¹
O=C(Nc1cccnn1)N1CCC(=Cc2cccc(OCCc3ccc(F)cc3)c2)CC1 [Example 92, 4-{3-[2-(4-fluorophenyl)ethoxy]benzylidene}-N-pyridazin-3-ylpiperidine-1-carboxamide] | 5205 M⁻¹ s⁻¹
O=C(Nc1cccnn1)N1CCC(=Cc2cccc(OCCc3cccnc3)c2)CC1 [Example 84, N-pyridazin-3-yl-4-[3-(2-pyridin-3-ylethoxy)benzylidene]piperidine-1-carboxamide] | 10747 M⁻¹ s⁻¹
O=C(Nc1cccnc1)N1CCC(=Cc2cccc(OC3CCC3)c2)CC1 [Example 8, 4-[3-(cyclobutyloxy)benzylidene]-N-pyridin-3-ylpiperidine-1-carboxamide] | 324 M⁻¹ s⁻¹
4-{3-[2-(3-methoxyphenyl)ethoxy]benzylidene}-N-pyridazin-3-ylpiperidine-1-carboxamide [Example 85] | 7770 M⁻¹ s⁻¹
O=C(Nc1cccnn1)N1CCC(=Cc2cccc(OCCCc3cnoc3)c2)CC1 [Example 94, 4-[3-(3-isoxazol-4-ylpropoxy)benzylidene]-N-pyridazin-3-ylpiperidine-1-carboxamide] | 27713 M⁻¹ s⁻¹
O=C(Nc1cccnn1)N1CCC(=Cc2cccc(OCC3CCC(C(F)(F)F)CC3)c2)CC1 (stereo not shown) [Example 103, N-pyridazin-3-yl-4-(3-{[4-(trifluoromethyl)cyclohexyl]methoxy}benzylidene)piperidine-1-carboxamide] | 1537 M⁻¹ s⁻¹
4-[3-(1-methyl-2-phenoxyethoxy)benzylidene]-N-pyridazin-3-ylpiperidine-1-carboxamide [Example 90] | 3971 M⁻¹ s⁻¹
O=C(Nc1cccnn1)N1CCC(=Cc2cccc(OC3CCC(C(F)(F)F)CC3)c2)CC1 (stereo not shown) [Example 97, N-pyridazin-3-yl-4-(3-{[4-(trifluoromethyl)cyclohexyl]oxy}benzylidene)piperidine-1-carboxamide] | 3238 M⁻¹ s⁻¹
